Laboratory results as given in patent US10570149B2, “Tricyclic heterocylic derivatives” (MERCK PATENT GMBH, priority 2016, dated 2020).

Target: T1, ATR/ATRIP (Homo sapiens, UniProt Q13535)
T1 construct: human ATR, full length, GenBank ID: NM_001184.3; p53: Sf21 insect cells
Assay: ATR/ATRIP kinase assay (TR-FRET, p53 phosphorylation)
Type: biochemical
Conditions: Table 1, class symbols; read-out: ATR-ATRIP IC50
Experimental: ATR/ATRIP Kinase Assay—Measurement of ATR/ATRIP Inhibition
The IC50 value was determined by an ATR/ATRIP enzymatic assay. The assay comprises two steps: the enzymatic reaction and the detection step. First, a mixture of ATR/ATRIP protein (Ataxia Telangiectasia and Rad3-related protein/ATR interacting protein), the compound in question at different concentrations, p53 as substrate protein and adenosine triphosphate (ATP) are incubated in assay buffer. ATR phosphorylates p53 at Ser15 and other residues. The amount of phosphorylated p53 is then detected using specific antibodies and the TR-FRET assay technology.
In detail: The ATR/ATRIP enzymatic assay is performed as a TR-FRET-(HTRF™, Cisbio Bioassays) based 384-well assay. In a first step, purified human recombinant ATR/ATRIP (human ATR, full length, GenBank ID: NM_001184.3, and human ATRIP, full length, GenBank ID AF451323.1, co-expressed in a mammalian cell line) is incubated in assay buffer for 15 minutes at 22° C. with test compound at different concentrations or without test compound (as a negative control). The assay buffer contains 25 mM HEPES pH 8.0, 10 mM Mg(CH3COO)2, 1 mM MnCl2, 0.1% BSA, 0.01% Brij® 35, and 5 mM dithiothreitol (DTT). […] Then, in a second step, purified human recombinant cmyc-tagged p53 (human p53, full length, GenBank ID: BC003596, expressed in Sf21 insect cells) and ATP are added and the reaction mixture is incubated for 25-35 minutes, typically 25 minutes, at 22° C. The pharmacologically relevant assay volume is 5 μl. The final concentrations in the assay during incubation of the reaction mixture are 0.3-0.5 nM, typically 0.3 nM, ATR/ATRIP, 50 nM p53, and 0.5 μM ATP. The enzymatic reaction is stopped by the addition of EDTA. […] Following signal development for 2 h the plates are analyzed in an EnVision (PerkinElmer) microplate reader using the TRF mode with laser excitation. […] Data are processed employing the Genedata Screener software. In particular, IC50 values are determined in the usual manner by fitting a dose-response curve to the data points using nonlinear regression analysis.

T1 sequence (Q13535 whole entry): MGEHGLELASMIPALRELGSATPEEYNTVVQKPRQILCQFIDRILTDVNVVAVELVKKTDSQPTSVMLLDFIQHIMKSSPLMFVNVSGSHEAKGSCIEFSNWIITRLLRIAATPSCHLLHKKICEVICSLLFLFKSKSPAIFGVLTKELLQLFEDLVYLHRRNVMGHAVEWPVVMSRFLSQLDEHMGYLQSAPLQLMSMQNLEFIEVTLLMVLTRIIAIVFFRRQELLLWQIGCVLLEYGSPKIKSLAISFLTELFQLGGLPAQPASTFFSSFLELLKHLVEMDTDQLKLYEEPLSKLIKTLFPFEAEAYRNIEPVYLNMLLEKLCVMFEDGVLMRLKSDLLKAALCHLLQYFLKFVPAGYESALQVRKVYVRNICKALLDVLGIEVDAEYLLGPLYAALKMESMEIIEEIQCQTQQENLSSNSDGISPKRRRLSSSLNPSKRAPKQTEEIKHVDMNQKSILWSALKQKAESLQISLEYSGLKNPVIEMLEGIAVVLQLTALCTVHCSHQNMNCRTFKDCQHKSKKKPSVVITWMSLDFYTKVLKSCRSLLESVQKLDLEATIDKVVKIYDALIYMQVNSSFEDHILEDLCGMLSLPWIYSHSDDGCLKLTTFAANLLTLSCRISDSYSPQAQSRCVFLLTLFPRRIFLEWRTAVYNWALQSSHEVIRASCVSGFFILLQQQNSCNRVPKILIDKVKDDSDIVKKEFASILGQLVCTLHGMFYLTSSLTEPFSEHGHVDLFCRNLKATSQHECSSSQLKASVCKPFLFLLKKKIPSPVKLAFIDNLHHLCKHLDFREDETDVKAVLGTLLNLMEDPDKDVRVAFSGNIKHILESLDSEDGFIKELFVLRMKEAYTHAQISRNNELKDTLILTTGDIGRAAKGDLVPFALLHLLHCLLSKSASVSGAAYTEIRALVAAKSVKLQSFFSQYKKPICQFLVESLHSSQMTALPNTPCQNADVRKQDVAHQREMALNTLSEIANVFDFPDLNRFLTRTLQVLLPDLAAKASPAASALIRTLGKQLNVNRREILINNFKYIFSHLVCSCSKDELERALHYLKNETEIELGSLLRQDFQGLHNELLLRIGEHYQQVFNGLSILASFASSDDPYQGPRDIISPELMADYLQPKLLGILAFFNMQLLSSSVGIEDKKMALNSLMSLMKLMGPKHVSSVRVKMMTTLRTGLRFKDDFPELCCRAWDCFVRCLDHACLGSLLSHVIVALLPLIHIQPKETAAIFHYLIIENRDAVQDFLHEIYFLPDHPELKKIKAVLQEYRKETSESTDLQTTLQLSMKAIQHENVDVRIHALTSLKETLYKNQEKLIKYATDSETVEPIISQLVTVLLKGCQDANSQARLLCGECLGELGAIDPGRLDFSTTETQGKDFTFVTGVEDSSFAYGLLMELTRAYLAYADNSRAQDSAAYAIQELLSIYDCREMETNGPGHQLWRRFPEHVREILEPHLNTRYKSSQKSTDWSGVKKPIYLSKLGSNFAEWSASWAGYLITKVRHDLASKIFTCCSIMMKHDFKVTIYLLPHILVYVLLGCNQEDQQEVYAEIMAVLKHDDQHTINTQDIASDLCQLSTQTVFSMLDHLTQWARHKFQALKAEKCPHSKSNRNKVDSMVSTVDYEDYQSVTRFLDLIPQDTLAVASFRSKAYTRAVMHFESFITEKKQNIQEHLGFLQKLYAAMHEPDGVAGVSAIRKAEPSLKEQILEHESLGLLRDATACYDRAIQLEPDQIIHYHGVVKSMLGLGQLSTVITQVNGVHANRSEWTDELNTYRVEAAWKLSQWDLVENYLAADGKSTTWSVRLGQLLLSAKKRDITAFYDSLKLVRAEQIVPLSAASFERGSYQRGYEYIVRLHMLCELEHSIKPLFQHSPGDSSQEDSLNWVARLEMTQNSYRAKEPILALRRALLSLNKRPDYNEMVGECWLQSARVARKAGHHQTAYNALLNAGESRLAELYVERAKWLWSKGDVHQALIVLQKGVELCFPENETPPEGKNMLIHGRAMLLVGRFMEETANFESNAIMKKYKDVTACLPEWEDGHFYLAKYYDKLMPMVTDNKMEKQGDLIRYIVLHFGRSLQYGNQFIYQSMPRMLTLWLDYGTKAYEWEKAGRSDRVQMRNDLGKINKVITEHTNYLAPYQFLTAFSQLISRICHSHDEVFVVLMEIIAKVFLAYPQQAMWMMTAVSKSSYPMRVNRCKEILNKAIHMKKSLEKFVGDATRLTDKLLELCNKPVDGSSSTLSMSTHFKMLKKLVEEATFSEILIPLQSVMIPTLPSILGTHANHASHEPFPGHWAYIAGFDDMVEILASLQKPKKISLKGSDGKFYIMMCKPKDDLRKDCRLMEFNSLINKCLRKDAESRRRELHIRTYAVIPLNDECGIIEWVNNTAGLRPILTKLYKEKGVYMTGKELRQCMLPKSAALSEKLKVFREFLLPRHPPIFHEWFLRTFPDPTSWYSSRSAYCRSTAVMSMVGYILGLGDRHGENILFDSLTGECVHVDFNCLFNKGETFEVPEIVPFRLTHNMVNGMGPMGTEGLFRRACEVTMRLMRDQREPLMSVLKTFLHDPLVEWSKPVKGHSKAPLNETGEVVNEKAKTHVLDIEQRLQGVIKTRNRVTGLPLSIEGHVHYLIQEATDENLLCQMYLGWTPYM
T1 sequence (Q8WXE1 whole entry partner): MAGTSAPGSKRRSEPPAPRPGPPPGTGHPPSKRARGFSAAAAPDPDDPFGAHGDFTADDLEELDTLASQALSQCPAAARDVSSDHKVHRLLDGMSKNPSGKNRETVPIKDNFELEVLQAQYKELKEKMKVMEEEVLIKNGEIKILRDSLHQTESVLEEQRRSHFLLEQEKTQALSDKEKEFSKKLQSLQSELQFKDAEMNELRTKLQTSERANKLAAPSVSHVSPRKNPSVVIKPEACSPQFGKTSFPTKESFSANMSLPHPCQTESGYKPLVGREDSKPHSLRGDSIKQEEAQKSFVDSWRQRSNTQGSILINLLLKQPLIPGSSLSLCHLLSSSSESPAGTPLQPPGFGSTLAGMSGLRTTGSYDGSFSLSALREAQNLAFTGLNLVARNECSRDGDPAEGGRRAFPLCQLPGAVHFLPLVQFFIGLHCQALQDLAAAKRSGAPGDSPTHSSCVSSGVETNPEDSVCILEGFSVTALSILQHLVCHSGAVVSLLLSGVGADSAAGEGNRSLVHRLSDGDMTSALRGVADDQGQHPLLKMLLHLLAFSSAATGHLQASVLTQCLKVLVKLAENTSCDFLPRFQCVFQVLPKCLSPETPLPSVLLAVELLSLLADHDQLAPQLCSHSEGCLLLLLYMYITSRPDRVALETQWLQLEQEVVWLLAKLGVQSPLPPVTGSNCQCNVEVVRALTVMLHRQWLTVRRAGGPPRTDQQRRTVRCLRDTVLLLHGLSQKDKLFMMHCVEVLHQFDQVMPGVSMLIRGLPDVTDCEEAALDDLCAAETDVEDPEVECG

Compound	IC50
C[C@@H]1COC[C@H]2COc3c(nc(-c4ccc(-c5ccn[nH]5)cc4)nc3C(C)(C)S(C)(=O)=O)N21 [A60, (5R,8aS)-1-(1-methanesulfonyl-1-methyl-ethyl)-5-methyl-3-[4-(2H-pyrazol-3-yl)-phenyl]-5,6,8a,9-tetrahydro-8H-7,10-dioxa-2,4,4b-triaza-phenanthrene]	10 to 100 nM
C[C@@H]1COC[C@H]2COc3c(nc(-c4ccc(C5(N)COC5)cc4)nc3C(C)(C)S(C)(=O)=O)N21 [A62, 3-{4-[(5R,8aS)-1-(1-methanesulfonyl-1-methyl-ethyl)-5-methyl-5,6,8a,9-tetrahydro-8H-7,10-dioxa-2,4,4b-triaza-phenanthren-3-yl]-phenyl}-oxetan-3-ylamine]	500 to 30000 nM
C[C@@H]1COC[C@H]2COc3c(nc(NCc4cn[nH]c4)nc3C(C)(C)S(C)(=O)=O)N21 [A65, [(5R,8aS)-1-(1-methanesulfonyl-1-methyl-ethyl)-5-methyl-5,6,8a,9-tetrahydro-8H-7,10-dioxa-2,4,4b-triaza-phenanthren-3-yl]-(1H-pyrazol-4-ylmethyl)-amine]	500 to 30000 nM
C[C@@H]1COC[C@H]2COc3c(nc(-c4ccc5cc(N)ncc5c4)nc3C(C)(C)S(C)(=O)=O)N21 [A66, 7-[(5R,8aS)-1-(1-methanesulfonyl-1-methyl-ethyl)-5-methyl-5,6,8a,9-tetrahydro-8H-7,10-dioxa-2,4,4b-triaza-phenanthren-3-yl]-isoquinolin-3-ylamine]	10 to 100 nM
C[C@@H]1COC[C@H]2COc3c(nc(-n4cc(C(N)=O)cn4)nc3C(C)(C)S(C)(=O)=O)N21 [A68, 1-[(S)-1-(1-methanesulfonyl-1-methyl-ethyl)-5-(R)-methyl-5,6,8a,9-tetrahydro-8H-7,10-dioxa-2,4,4b-triaza-phenanthren-3-yl]-1H-pyrazole-4-carboxylic Acid Amide]	500 to 30000 nM
C[C@@H]1COC[C@H]2COc3c(nc(-n4cc(C#N)c5ccccc54)nc3C(C)(C)S(C)(=O)=O)N21 [A70, 1-[(5R,8aS)-1-(1-methanesulfonyl-1-methyl-ethyl)-5-methyl-5,6,8a,9-tetrahydro-8H-7,10-dioxa-2,4,4b-triaza-phenanthren-3-yl]-1H-indole-3-carbonitrile]	10 to 100 nM
C[C@@H]1COC[C@H]2COc3c(nc(-c4ccc5c(c4)CCNC5)nc3C(C)(C)S(C)(=O)=O)N21 [A71, (5R,8aS)-1-(1-methanesulfonyl-1-methyl-ethyl)-5-methyl-3-(1,2,3,4-tetrahydro-isoquinolin-6-yl)-5,6,8a,9-tetrahydro-8H-7,10-dioxa-2,4,4b-triaza-phenanthrene]	100 to 500 nM

Continued, values first:

IC50	Compound
500 to 30000 nM	CC(CO)NC(=O)c1nc2c(c(C(C)(C)S(C)(=O)=O)n1)OC[C@@H]1COC[C@@H](C)N21 (stereo partly drawn) [A56, (4bS,6R)-1-(1-methanesulfonyl-1-methyl-ethyl)-5-methyl-5,6,8a,9-tetrahydro-8H-7,10-dioxa-2,4,4b-triaza-phenanthrene-3-carboxylic Acid (2-hydroxy-1-methyl-ethyl)-amide]
500 to 30000 nM	C[C@@H]1COC[C@H]2COc3c(nc(C(=O)Nc4ccnnc4)nc3C(C)(C)S(C)(=O)=O)N21 [A57, (4bS,6R)-1-(1-methanesulfonyl-1-methyl-ethyl)-5-methyl-5,6,8a,9-tetrahydro-8H-7,10-dioxa-2,4,4b-triaza-phenanthrene-3-carboxylic Acid pyridazin-4-ylamide]
500 to 30000 nM	C[C@@H]1COC[C@H]2COc3c(nc(C(=O)Nc4ncccn4)nc3C(C)(C)S(C)(=O)=O)N21 [A58, (4bS,6R)-1-(1-methanesulfonyl-1-methyl-ethyl)-5-methyl-5,6,8a,9-tetrahydro-8H-7,10-dioxa-2,4,4b-triaza-phenanthrene-3-carboxylic Acid pyrimidin-2-ylamide]
10 to 100 nM	C[C@@H]1COC[C@H]2COc3c(nc(Nc4cn[nH]c4)nc3C(C)(C)S(C)(=O)=O)N21 [A75, [(5R,8aS)-1-(1-methanesulfonyl-1-methyl-ethyl)-5-methyl-5,6,8a,9-tetrahydro-8H-7,10-dioxa-2,4,4b-triaza-phenanthren-3-yl]-(1H-pyrazol-4-yl)-amine]
